According to EPA's ToxValDB 9.5 (doi:10.2903/j.efsa.2008.151r):

Tests used:
Typhlodromus pyri = test: LR50; higher = less toxic; conditions: not reported; mortality
Tagia sp. = conditions: acute; duration: 14 days; mortality
Canidae = conditions: subchronic; duration: 90 days; oral; Dog Other; body weight
Lepomis macrochirus = conditions: chronic/long-term; duration: 28 days; body weight
Daphnia magna = conditions: chronic/long-term; duration: 21 days; reproduction
Oryctolagus sp. = conditions: developmental; development
[1] = reproduction developmental, reproduction

CC(C)C(O)(c1ccc(OC(F)(F)F)cc1)c1cncnc1 (configuration not stated) [Flurprimidol]
LR50 (Typhlodromus pyri): > 29.6 g/ha | NOEC (Tagia sp.): 62.6 mg/kg | LOAEL (Rattus norvegicus; chronic, duration: 2 years, organ weight): 1 mg/kg-day | NOAEL (Rattus norvegicus; developmental, development): 10 mg/kg-day | NOAEL (Rattus norvegicus; [1]): 1.8 mg/kg-day | NOEL (Rattus norvegicus; [1]): 1.8 mg/kg-day | NOEL (Rattus norvegicus; short-term, oral, diet, body weight): 1.62 mg/kg-day | NOAEL (Rattus norvegicus; subchronic, duration: 90 days, oral, F, organ weight): 1.96 mg/kg-day | NOAEL (Canidae): 1.5 mg/kg-day | NOEC (Lepomis macrochirus): 0.42 mg/L | NOEC (Daphnia magna): 1.7 mg/L | NOAEL (Oryctolagus sp.): 9 mg/kg-day
